Measured values from US20190307740A1, “COMPOSITIONS AND METHODS FOR TREATMENT RELATED TO FALL AND FALL FREQUENCY IN NEURODEGENERATIVE DISEASES” (Neurocea, LLC, priority 2016, published 2019).
Where two headings read alike, the source gives them in different places.

What was measured:
[1] = tested on: rats with a unilateral 6-hydroxydopamine lesion; test: LIDs in rats with a unilateral 6-hydroxydopamine lesion; type: in vivo; conditions: parkinsonian rat model of LIDs
nAChR = conditions: cited from earlier work
[2] = cited from earlier work; for absorption: oral / gastrointestinal tract
[3] = tested on: subjects with idiopathic PD with LIDs; conditions: Visit 4 (Week 10)
Description: (§1) At the time the study was performed (2009), there was no FDA accepted instrument for measuring treatment efficacy for LIDs. Therefore, several secondary objectives were utilized to assess efficacy including the Unified Dyskinesia Rating Scale (UDysRS).

[4] = tested on: subjects with idiopathic PD with LIDs; conditions: during the 10-week study
Description: The original UPDRS scale was used. […] In the UPDRS Part II, Question 13 is on Falling unrelated to Freezing. […] In Part II, Question 14 is on Freezing when Walking. This is a 5-point item and has two variables freezing and falls. […] Questions 13 and 14 were compared separately (Table 11).
(§2) The efficacy variables for LIDs were the mean change from baseline to week 10 in the UDysRS total score; UDysRS sub-scores (Table 12). An analysis of covariance (ANCOVA) combined features of regression and analysis of variance (ANOVA). In addition to the descriptive summary of each variable from baseline to endpoint, Least Square (LS) means standard errors and 95% Confidence intervals (CI) of each group, and the difference of LS means between the 2 treatment groups and its 95% CI are presented. A similar analysis was applied to comparisons between UPDRS Part II, UPDRS Part III.

[5] = tested on: subjects with idiopathic PD with LIDs; conditions: for Study discontinuation, primary reason adverse event, n (%): 35 randomized
Description: as §1
A total of 65 male and female subjects with idiopathic PD with LIDs were randomized in the study. The study consisted of 4 phases (FIG. 6A): screening phase (up to 3 weeks), double-blind treatment phase (10 weeks), taper phase (2 weeks), and follow-up phase (2 weeks). The approximate duration of the study for each subject was 17 weeks. […] During the double-blind treatment phase, dosing was begun at Visit 0 at 1 mg every 6 hours (total daily dose [TDD]=4 mg/day) and escalated upwards at 2-week intervals as follows: 2 mg every 6 hours (TDD=8 mg/day) at Visit 1 (Week 2); 4 mg every 6 hours (TDD=16 mg/day) at Visit 2 (Week 4); 6 mg every 6 hours (TDD=24 mg/day) at Visit 3 (Week 6). Subjects were maintained on 24 mg/day for 4 weeks. The subsequent taper phase (2 weeks total), beginning at Visit 4 (Week 10), consisted of 9 days of drug taper and 5 days off drug prior to Visit 5 (final safety visit). […] Ondansetron was provided by the sponsor and dispensed with each dose escalation step with instructions to use it for nausea and vomiting only during the first 4 days following dose initiation or escalation. […] No other dose down-titration was allowed.
(§3) Efficacy was measured with the Unified Dyskinesia Rating Scale (UDysRS), a semi-quantitative assessment, FDA-validated instrument to assess […] dyskinesia in PD. […] Dosing was begun at 1 mg every 6 hours to a final dose of 24 mg per day. Patients who tolerated a total daily dose of at least 16 mg per day continued in the study.
Subjects were maintained on 24 mg/day for 4 weeks. The subsequent taper phase (2 weeks total), beginning at visit 4 (Week 10), consisted of 9 days of drug taper and 5 days off drug prior to Visit 5 (final safety visit). […] No other down-titration was allowed.
(§4) LIDs were assessed by the UDysRS, the main measure of LIDs (Table 12). […] The study was conducted in accordance with the Declaration of Helsinki and Good Clinical Practice Guidelines. All sites received approval from an institutional review board and written informed consent was obtained from each patient prior to participation.

[6] = tested on: subjects with idiopathic PD with LIDs
Description: as §1, §3, §4, §2

all nAChRs = conditions: cited from earlier work
[7] = Phase 2 data used for sample size

## c1cncc(OC[C@@H]2CCN2)c1 [A-85380]
[1]
  effect on LIDs: reduced LIDs to varying extents

## Cc1ncccc1OC[C@@H]1CCCN1 [ABT-089]
nAChR
  Type of agonist: Partial

## c1cc2cc(-c3ccc(O[C@H]4CN5CCC4CC5)nn3)ccc2[nH]1 [ABT-107]
nAChR
  Type of agonist: Full

## Clc1cc(N2C[C@@H]3CN[C@@H]3C2)cnc1Cl [ABT-894]
nAChR
  Type of agonist: Full

## Cc1ccc(-c2ccc(OC3CN4CCC3CC4)cn2)cc1 (centres unmarked) [AQW051]
nAChR
  Type of agonist: Partial

## O=C(c1ccc(Cl)o1)N1CC2CNCC2C1 (centres unmarked) [AZD1446]
nAChR
  Type of agonist: Full

## CN1CCC[C@H]1c1cccnc1 [Nicotine, (S)-3-[1-methylpyrrolidin-2-yl]pyridine, reference compound]
[2]; in vivo
  first-pass metabolism: extensively metabolized into cotinine
  half-life: very short half-life
[2]
  absorption: well-absorbed in the gastrointestinal tract
[2]; listed as nicotine
  absorption: rapidly absorbed
[3]; p=0.0048 vs placebo
  PGI-C responders (score of 1, 2, or 3): 21 (77.8%)
[3]; p=0.0453
  LF-ADL responders (>25% reduction from baseline), vs placebo: statistically significant difference between treatment groups
[4]
  worsening of Parkinson symptoms (UPDRS Part III, Hoehn and Yahr): neither the UPDRS Part III nor the Hoehn and Yahr scales showed any worsening
[4]; listed as nicotine
  worsening of Parkinson symptoms (UPDRS Part III, Hoehn and Yahr): did not cause any worsening of the PD symptoms
Rats and mice; in vivo
  efficacy over time: no decline in its efficacy over time
Rats and mice; oral application, injection, slow-release minipumps
  effect on LIDs: reduced LIDs
nAChR
  Type of agonist: Full
  nAChR subtype: All
[5]
  Study discontinuation, primary reason adverse event, n (%): 6 n (%)
[5]; listed as nicotine
  Study discontinuation, primary reason adverse event, n (%): Six
[5]; after taper from 24 mg/day
  impulsivity and nicotine withdrawal symptoms: no issues with impulsivity or withdrawal symptoms
[5]; oral 4 times/day up to 24 mg/day, 10 weeks
  overall safety and tolerability: safe and well tolerated
[6]; [7]
  UDysRS part III, Week 10 result: change from baseline, mean: 5.2
  UDysRS walking, Week 10 result: change from baseline, mean: 4.4
[6]; in vivo
  Gait-subtest of the UDysRS vs placebo: statistically superior to placebo
  dyskinesia disability (UDysRS part 3), Walking, LF-ADL and PGI-C responders vs placebo: Statistically significant differences favoring nicotine compared to placebo

## CN[C@@H](C)C/C=C/c1cncc(OC)c1 [TC-2696]
[1]
  effect on LIDs: reduced LIDs to varying extents

## c1cnc2cc3c(cc2n1)[C@@H]1CNC[C@H]3C1 [Varenicline]
nAChR
  Type of agonist: Partial
  nAChR subtype: All
[1]
  effect on LIDs: reduced LIDs to varying extents
All nAChRs
  Ki: 0.1 nM

## OCCCCC#Cc1cncc(OC[C@@H]2CCN2)c1 [sazetidine]
[1]
  effect on LIDs: reduced LIDs to varying extents
